Series [1] in a line: Cytotoxicity test (Cell-titer Blue method) in HepG2.2.15 cells. It is filed as cell-based. As to conditions: human, six days after treatment, highest concentration tested 100 μM, read-out: HepG2.2.15 cell viability CC50. From the text: (§1) In this experiment, real-time fluorescent quantitative PCR (qPCR) method was used to detect the content of HBV DNA in the supernatant of HepG2.2.15 cells to determine the anti-hepatitis B virus activity of the compound in HepG2.2.15 cells, and to detect cell viability impact of the test compound against HepG2.2.15 by Cell-titer Blue method. In the experiment, entecavir (ETV) was used as a reference compound to monitor the quality of the experiment.
The compound concentration, plate layout, and compound treatment process are consistent with the antiviral experiments. In six days after the cells were treated with the compound, the cell viability was measured with Cell-titer Blue.
Analyze the data and calculate relative cell viability: Use the following formula to calculate the percentage of cell viability: % Cell viability=(sample fluorescence reading-fluorescence reading of culture medium control)/(fluorescence reading of DMSO control-fluorescence reading of the culture medium control)×100.
Finally, GraphPad Prism software was used to calculate the CC50 value of the compound.

The test system of series [2] is hepatitis B virus (HBV). Kind of series: Anti-hepatitis B virus activity: HBV DNA in supernatant of HepG2.2.15 cells by qPCR. It is filed as cell-based. As to conditions: 192 h, supernatant collected on day 8.
Text: as §1
On day 1, the cells were planted into a 96-well plate, the compound was added to treat the cells on day 2, a new culture medium containing the compound was replaced on day 5, and the supernatant was collected on day 8 to extract DNA. Quantitative PCR was used to detect the content of HBV DNA. Both the test compound and the control compound were diluted in a series of 3 times with 8 concentration points, and 2 replicate wells were measured in parallel. The final concentration of DMSO in the culture medium is 0.5%.
The calculation formula of the inhibition percentage is as follows: % inh.=(1-HBV copy number of sample/HBV copy number of 0.5% DMSO control)×100
EC50 was analyzed by Graphpad Prism software (four parameter logistic equations).
For orientation: Real-time PCR tracks product formation cycle by cycle.

Series [3] can be described thus: Pharmacokinetics (PK) experiment, intragastric administration in rats. The class given is in vivo, Male SD rats. As to conditions: for AUC(0-inf) / Cmax / Tmax / half-life / AUC(0-t): male, SD, rat, po, intragastric administration 20 mg/kg, plasma; for AUC(0-t): read-out: AUC0-24; for absorption after oral administration / blood exposure: oral administration. On the procedure:
Male SD rats weighing 215-343 grams were fasted overnight before the test. The test compound was completely dissolved in 5% of the total volume of DMSO and then diluted with 30% Captisol to 2 mg/mL, and then it was administered by gavage at dosage of 20 mg/kg. In 15 minutes, 30 minutes, 1, 2, 4, 6, 8 and 24 hours after the administration, blood was taken from the end of the tails of rats at about 0.3 ml at each time point. The blood sample was placed in a centrifuge tube containing K2-EDTA, and centrifuged (@3500 rpm, 10 minutes, 4° C.). Take the plasma and store it in an ultra-low temperature refrigerator at −80° C. 50 μL of plasma sample was mixed with 135 μl of acetonitrile (including the internal standard IS), and then vortexed for 30 s, centrifuged at 15000 rpm at 4° C. for 10 min, and 10 μl of supernatant was taken as sample and injected into LC-MS/MS for analysis.

Bounds are passed on as bounds.

Usually CC50 stands for the concentration that lowers cell viability or growth by half. A word on the EC50: it is the concentration giving half of the maximal effect. Low readings indicate a more potent agent, high ones a less potent agent. One may read the AUC(0-inf) as the area under the concentration-time curve extrapolated to infinity. A high value points to high exposure. Broadly, the Cmax is the maximum level reached in the sampled fluid or tissue. As a reminder, the Tmax is the time from dosing to the highest level. As a reminder, the half-life is how long it takes for the measured level to halve. Take `Cc1sc(C(=O)C(=O)NC(C)(C)C)c(C)c1C(=O)Nc1ccc(F)c(Cl)c1` [Compound 36, 2,4-Dimethyl-3-amide-N-(3-chloro-4-fluorophenyl)-5-(2-tert-butylamino-oxalyl)-thiophene]: in series [1], the CC50 at 6 days was greater than 100 µM. Moreover, the EC50 in series [2] is no more than 0.05 µM. Further, in series [3], the AUC(0-inf) came out at 32600 ng·h/mL, the Cmax stood at 3730 ng/mL, the Tmax was 0.5 h and the half-life was 12.2 h. Moreover, in series [3], the AUC(0-t) is 25800 ng·h/mL, the “absorption after oral administration” value is listed as “well absorbed” and the blood exposure entry is “relatively high”.

`C#CCNC(=O)C(=O)c1c(C)c(C(=O)Nc2ccc3occc3c2)n(C)c1C` [Compound 53, 1,3,5-Trimethyl-2-amide-N-(benzofuran-5-yl)-4-(2-propargylamino-oxalyl)-pyrrole]: the CC50 at 6 days in series [1] is greater than 100 µM. Further, the EC50 in series [2] is no more than 0.05 µM. Also, in series [3], the AUC(0-inf) turned out to be 26400 ng·h/mL, the highest concentration (Cmax) is 3930 ng/mL, the Tmax was found to be 1.58 h and the half-life is 2.48 h. The AUC(0-t) in series [3] amounted to 26300 ng·h/mL.

For `CC(C)(C)NC(=O)C(=O)c1cc(C(=O)Nc2ccc(F)cc2)co1` [Compound 42, 3-Amide-N-(4-fluorophenyl)-5-(2-tert-butylamino-oxalyl)-furan], the CC50 at 6 days in series [1] was greater than 100 µM. Besides, the EC50 in series [2] fell in the range of 5 to 50 µM. Also, in series [3], the “absorption after oral administration” value is reported as “well absorbed” and the blood exposure result is “relatively high”.

As to `C#CCNC(=O)C(=O)c1cc(C(=O)Nc2ccc(F)c(Cl)c2)c(C)o1` [Compound 2, 2-Methyl-3-amide-N-(3-chloro-4-fluorophenyl)-5-(2-propargylamino-oxalyl)-furan], the CC50 at 6 days in series [1] stood at 61 µM. Also, in series [2], the EC50 is 5 to 50 µM. In series [3], the “absorption after oral administration” value was “well absorbed” and the blood exposure result is listed as “relatively high”.

With `Cc1oc(C(=O)C(=O)NCc2nccn2C)cc1C(=O)Nc1ccc(F)c(Cl)c1` [Compound 8], in series [1], the CC50 at 6 days was greater than 100 µM. Moreover, in series [2], the EC50 lay in the range of 5 to 50 µM. Further, in series [3], the “absorption after oral administration” value is “well absorbed” and the blood exposure entry was “relatively high”.
